Assays:
Type in all cases: cell-based
[1] = tested on: mCherry-GAL9 expressing SHSY5Y cells; assay: GAL9 recruitment assay, SHSY5Y; conditions: calculated mean from >3 independent exp.
Method in brief: (§1)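 Stable mCherry-GAL9 lines; 24 h post-seeding, compound dosed as dose-response. Endpoint: PBS wash, 4% PFA fix (RT), Hoechst 33342 1 μg/mL. Confocal imaging ×20w, GAL9 puncta quantified. N = 3, duplicate wells.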

[2] = tested on: mCherry-GAL9 expressing U2OS cells; assay: GAL9 recruitment assay, U2OS; conditions: calculated mean from >3 independent exp.
Method in brief: as §1

[3] = tested on: mCherry-GAL9 expressing HepG2 cells; assay: GAL9 recruitment assay, HepG2; conditions: calculated mean from >3 independent exp.
Method in brief: as §1

[4] = tested on: HeLa_Luc705 cells (pLuc/705 splice-switching reporter); assay: Functional 705-SSO delivery, luciferase splice-switching assay; conditions: HeLa-Luc705 + 2 µM SSO, mean from >3 independent experiments
Method in brief: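 Splice correction was measured as firefly luciferase luminescence in Triton X-100 lysates taken 24 h after enhancer treatment. Before treatment, the 10,000 cells/well had spent 24 h with 1–2 μM 705-SSO (2′-OMe, phosphorothioate). For comparison, 100–200 nM SSO was lipofected with LF2000.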

[5] = tested on: mCherry-GAL9 expressing 16HBE cells; assay: GAL9 recruitment assay, 16HBE; conditions: calculated mean from >3 independent exp.
Method in brief: as §1

[6] = tested on: mCherry-GAL9 expressing HeLa cells; assay: GAL9 recruitment assay, HeLa; conditions: calculated mean from >3 independent exp.
Method in brief: as §1

[7] = tested on: mCherry-GAL9 expressing HuH7 cells; assay: GAL9 recruitment assay, HuH7; conditions: calculated mean from >3 independent exp.
Method in brief: as §1

[8] = tested on: mCherry-GAL9 expressing NCI-H358 cells; assay: GAL9 recruitment assay, NCI-H358; conditions: calculated mean from >3 independent exp.
Method in brief: as §1

[9] = tested on: mCherry-GAL9 expressing HEK293 cells; assay: GAL9 recruitment assay, HEK293; conditions: calculated mean from >3 independent exp.
Method in brief: as §1

COc1nn(C2CCNCC2)cc1Nc1ncc(F)c(-c2c[nH]c3ccccc23)n1 [EEE23]
Gal9 response compared to reference ([1]; EEE 0.31 µM): 0.013
Gal9 response compared to reference ([1]; EEE 0.62 µM): 0.015
Gal9 response compared to reference ([1]; EEE 1.25 µM): 0.013
Gal9 response compared to reference ([1]; EEE 2.5 µM): 0.013
Gal9 response compared to reference ([1]; EEE 5 µM): 0.017
Gal9 response compared to reference ([1]; EEE 10 µM): 0.087
Gal9 response compared to reference ([2]; EEE 0.31 µM): 0.011
Gal9 response compared to reference ([2]; EEE 0.62 µM): 0.012
Gal9 response compared to reference ([2]; EEE 1.25 µM): 0.015
Gal9 response compared to reference ([2]; EEE 2.5 µM): 0.015
Gal9 response compared to reference ([2]; EEE 5 µM): 0.012
Gal9 response compared to reference ([2]; EEE 10 µM): 0.017
Gal9 response compared to reference ([3]; EEE 0.31 µM): 0.006
Gal9 response compared to reference ([3]; EEE 0.62 µM): 0.006
Gal9 response compared to reference ([3]; EEE 1.25 µM): 0.007
Gal9 response compared to reference ([3]; EEE 2.5 µM): 0.005
Gal9 response compared to reference ([3]; EEE 5 µM): 0.004
Gal9 response compared to reference ([3]; EEE 10 µM): 0.005
Luciferase expression compared to reference ([4]; EEE 5 µM): 65.259
Luciferase expression compared to reference ([4]; EEE 1-1.25 µM): 0.775
Luciferase expression compared to reference ([4]; EEE 2.5 - 3 µM): 1.207
Gal9 response compared to reference ([5]; EEE 0.31 µM): 0.008
Gal9 response compared to reference ([5]; EEE 0.62 µM): 0.010
Gal9 response compared to reference ([5]; EEE 1.25 µM): 0.010
Gal9 response compared to reference ([5]; EEE 2.5 µM): 0.012
Gal9 response compared to reference ([5]; EEE 5 µM): 0.017
Gal9 response compared to reference ([5]; EEE 10 µM): 0.032
Gal9 response compared to reference ([6]; EEE 0.31 µM): 0.004
Gal9 response compared to reference ([6]; EEE 0.62 µM): 0.005
Gal9 response compared to reference ([6]; EEE 1.25 µM): 0.004
Gal9 response compared to reference ([6]; EEE 2.5 µM): 0.005
Gal9 response compared to reference ([6]; EEE 5 µM): 0.005
Gal9 response compared to reference ([6]; EEE 10 µM): 0.008
Gal9 response compared to reference ([7]; EEE 0.31 µM): 0.007
Gal9 response compared to reference ([7]; EEE 0.62 µM): 0.008
Gal9 response compared to reference ([7]; EEE 1.25 µM): 0.009
Gal9 response compared to reference ([7]; EEE 2.5 µM): 0.009
Gal9 response compared to reference ([7]; EEE 5 µM): 0.010
Gal9 response compared to reference ([7]; EEE 10 µM): 0.011
Gal9 response compared to reference ([8]; EEE 0.31 µM): 0.013
Gal9 response compared to reference ([8]; EEE 0.62 µM): 0.015
Gal9 response compared to reference ([8]; EEE 1.25 µM): 0.012
Gal9 response compared to reference ([8]; EEE 2.5 µM): 0.017
Gal9 response compared to reference ([8]; EEE 5 µM): 0.017
Gal9 response compared to reference ([8]; EEE 10 µM): 0.021
Gal9 response compared to reference ([9]; EEE 0.31 µM): 0.019
Gal9 response compared to reference ([9]; EEE 0.62 µM): 0.015
Gal9 response compared to reference ([9]; EEE 1.25 µM): 0.015
Gal9 response compared to reference ([9]; EEE 2.5 µM): 0.016
Gal9 response compared to reference ([9]; EEE 5 µM): 0.025
Gal9 response compared to reference ([9]; EEE 10 µM): 0.042

COc1nn(C2CCNCC2)cc1Nc1ncc(C(F)(F)F)c(-c2c[nH]c3ccccc23)n1 [EEE24]
Gal9 response compared to reference ([1]; EEE 0.31 µM): 0.016
Gal9 response compared to reference ([1]; EEE 0.62 µM): 0.015
Gal9 response compared to reference ([1]; EEE 1.25 µM): 0.010
Gal9 response compared to reference ([1]; EEE 2.5 µM): 0.013
Gal9 response compared to reference ([1]; EEE 5 µM): 0.070
Gal9 response compared to reference ([1]; EEE 10 µM): 0.703
Gal9 response compared to reference ([2]; EEE 0.31 µM): 0.014
Gal9 response compared to reference ([2]; EEE 0.62 µM): 0.015
Gal9 response compared to reference ([2]; EEE 1.25 µM): 0.014
Gal9 response compared to reference ([2]; EEE 2.5 µM): 0.015
Gal9 response compared to reference ([2]; EEE 5 µM): 0.026
Gal9 response compared to reference ([2]; EEE 10 µM): 0.166
Gal9 response compared to reference ([3]; EEE 0.31 µM): 0.010
Gal9 response compared to reference ([3]; EEE 0.62 µM): 0.009
Gal9 response compared to reference ([3]; EEE 1.25 µM): 0.009
Gal9 response compared to reference ([3]; EEE 2.5 µM): 0.008
Gal9 response compared to reference ([3]; EEE 5 µM): 0.008
Gal9 response compared to reference ([3]; EEE 10 µM): 0.104
Luciferase expression compared to reference ([4]; EEE 5 µM): 7.300
Luciferase expression compared to reference ([4]; EEE 1-1.25 µM): 0.741
Luciferase expression compared to reference ([4]; EEE 2.5 - 3 µM): 1.920
Gal9 response compared to reference ([5]; EEE 0.31 µM): 0.010
Gal9 response compared to reference ([5]; EEE 0.62 µM): 0.011
Gal9 response compared to reference ([5]; EEE 1.25 µM): 0.011
Gal9 response compared to reference ([5]; EEE 2.5 µM): 0.014
Gal9 response compared to reference ([5]; EEE 5 µM): 0.035
Gal9 response compared to reference ([5]; EEE 10 µM): 0.335
Gal9 response compared to reference ([6]; EEE 0.31 µM): 0.005
Gal9 response compared to reference ([6]; EEE 0.62 µM): 0.005
Gal9 response compared to reference ([6]; EEE 1.25 µM): 0.004
Gal9 response compared to reference ([6]; EEE 2.5 µM): 0.004
Gal9 response compared to reference ([6]; EEE 5 µM): 0.008
Gal9 response compared to reference ([6]; EEE 10 µM): 0.207
Gal9 response compared to reference ([7]; EEE 0.31 µM): 0.010
Gal9 response compared to reference ([7]; EEE 0.62 µM): 0.010
Gal9 response compared to reference ([7]; EEE 1.25 µM): 0.011
Gal9 response compared to reference ([7]; EEE 2.5 µM): 0.016
Gal9 response compared to reference ([7]; EEE 5 µM): 0.019
Gal9 response compared to reference ([7]; EEE 10 µM): 0.174
Gal9 response compared to reference ([8]; EEE 0.31 µM): 0.019
Gal9 response compared to reference ([8]; EEE 0.62 µM): 0.018
Gal9 response compared to reference ([8]; EEE 1.25 µM): 0.016
Gal9 response compared to reference ([8]; EEE 2.5 µM): 0.015
Gal9 response compared to reference ([8]; EEE 5 µM): 0.021
Gal9 response compared to reference ([8]; EEE 10 µM): 0.115
Gal9 response compared to reference ([9]; EEE 0.31 µM): 0.024
Gal9 response compared to reference ([9]; EEE 0.62 µM): 0.019
Gal9 response compared to reference ([9]; EEE 1.25 µM): 0.014
Gal9 response compared to reference ([9]; EEE 2.5 µM): 0.017
Gal9 response compared to reference ([9]; EEE 5 µM): 0.100
Gal9 response compared to reference ([9]; EEE 10 µM): 0.464
